US20260042764A1, “COMPOSITIONS AND METHODS FOR INHIBITION OF KRAS” (TheRas, Inc., priority 2022, published 2026)

Experiments:
GP2d cells (KRAS G12D) = experiment: Cell-based pERK HTRF assay in GP2d cell (Biological Example 2); conditions: GP2d (KRAS G12D) cells, pERK HTRF
In short: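 60 min compound, 0.25% DMSO, 9-pt half-log curve from 1 μM or 100 nM; DMEM/10% FBS.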

[1] = biological target: T1, Avi-KRAS G12V (1-169) GppNHp/RAF1 RBD-3xFLAG (52-151) (Homo sapiens, UniProt P01116, G12V); experiment: Raf1-KRAS G12V-GppNHP disruption HTRF assay (Biological Example 1); assay type: binding
T1 construct: Avi-KRAS G12V (1-169)
In short: (§1)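 First, protein mix in Tris pH 7.5 buffer with NaCl, MgCl2, BSA, Tween and 10% DMSO is incubated 1 h at room temperature. Next, reagent mix is added and incubated a further 1 h at room temperature. Finally, HTRF is read and activity normalized to DMSO.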

[2] = biological target: T2, Avi-KRAS G12D (1-169) GppNHp/RAF1 RBD-3xFLAG (52-151) (Homo sapiens, UniProt P01116, G12D); experiment: Raf1-KRAS G12D-GppNHP disruption HTRF assay (Biological Example 1); assay type: binding
T2 construct: Avi-KRAS G12D (1-169)
In short: as §1

SW620 cells (KRAS G12V) = experiment: Cell-based pERK HTRF assay in SW620 cell (Biological Example 4); conditions: pERK HTRF
In short: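 This assay measures inhibition of ERK phosphorylation downstream of KRAS G12V in intact SW620 cells. Compounds are applied for 4 h over nine half-log concentrations starting at 1 μM, and pERK is quantified by HTRF.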

[3] = biological target: T3, Avi-KRAS G12R (1-169) GppNHp/RAF1 RBD-3xFLAG (52-151) (Homo sapiens, UniProt P01116, G12R); experiment: Raf1-KRAS G12R-GppNHP disruption HTRF assay (Biological Example 1); assay type: binding
T3 construct: Avi-KRAS G12R (1-169)
In short: as §1

[4] = biological target: T4, Avi-KRAS WT (1-169) GppNHp/RAF1 RBD-3xFLAG (52-151) (Homo sapiens, UniProt P01116); experiment: Raf1-KRAS WT-GppNHP disruption HTRF assay (Biological Example 1); assay type: binding
T4 construct: Avi-KRAS WT (1-169)
In short: as §1

[5] = Homo sapiens, SW-620, SW620 (KRAS G12V) cells
[6] = KRAS G12V, GppNHp-loaded, class symbols
[7] = KRAS G12D, GppNHp-loaded, class symbols
[8] = Homo sapiens, SW-620, SW620 (KRAS G12V) cells, class symbols
[9] = KRAS G12R, GppNHp-loaded, class symbols
[10] = KRAS WT, GppNHp-loaded, class symbols
[11] = KRAS G12V, GppNHp-loaded, Table 11
[12] = KRAS G12D, GppNHp-loaded, Table 11
[13] = KRAS G12R, GppNHp-loaded, Table 11
[14] = KRAS WT, GppNHp-loaded, Table 11

T3 sequence (P01116 1-169 isoform P01116-2 G12R): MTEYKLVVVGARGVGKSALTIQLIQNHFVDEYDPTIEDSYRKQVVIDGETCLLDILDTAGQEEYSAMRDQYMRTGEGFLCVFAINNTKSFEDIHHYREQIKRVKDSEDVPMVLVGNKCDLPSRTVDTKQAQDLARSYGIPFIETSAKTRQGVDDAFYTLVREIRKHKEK
T2 sequence (P01116 1-169 isoform P01116-2 G12D): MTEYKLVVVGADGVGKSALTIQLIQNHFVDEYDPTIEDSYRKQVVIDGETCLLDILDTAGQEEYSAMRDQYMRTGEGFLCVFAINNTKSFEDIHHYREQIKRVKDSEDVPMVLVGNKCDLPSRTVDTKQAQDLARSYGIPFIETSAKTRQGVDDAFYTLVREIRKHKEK
T4 sequence (P01116 1-169 isoform P01116-2): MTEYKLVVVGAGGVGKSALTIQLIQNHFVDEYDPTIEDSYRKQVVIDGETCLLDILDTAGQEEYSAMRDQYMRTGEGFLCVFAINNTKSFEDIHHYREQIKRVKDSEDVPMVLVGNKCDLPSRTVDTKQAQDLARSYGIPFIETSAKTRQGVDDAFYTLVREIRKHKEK
T1 sequence (P01116 1-169 isoform P01116-2 G12V): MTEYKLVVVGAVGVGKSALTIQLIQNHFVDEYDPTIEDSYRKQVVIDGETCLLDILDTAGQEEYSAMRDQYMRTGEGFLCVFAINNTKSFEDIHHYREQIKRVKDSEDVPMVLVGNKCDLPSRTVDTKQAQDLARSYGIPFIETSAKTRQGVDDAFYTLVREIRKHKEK

Row | IC50 (GP2d cells (KRAS G12D); GP2d) [nM] | IC50 ([1]; KRAS G12V-GppNHp/RAF1 RBD HTRF) [nM] | IC50 ([2]; KRAS G12D-GppNHp/RAF1 RBD HTRF) [nM] | IC50 (SW620 cells (KRAS G12V); [5]) [nM] | IC50 ([3]; KRAS G12R-GppNHp/RAF1 RBD HTRF) [nM] | IC50 ([4]; KRAS WT-GppNHp/RAF1 RBD HTRF) [nM] | SMILES | other results
1 | < 100 | 100 to 1000 | 100 to 1000 | < 100 | 100 to 1000 | 100 to 1000 | CNC(=O)N1CC[C@@H](N(C)c2nc(OC[C@@]34CCCN3C[C@H](F)C4)nc3c(F)c(-c4ccc(F)c5sc(N)c(C#N)c45)c(C(F)(F)F)cc23)[C@H]1C [Compound 427] | –
2 | < 100 | 100 to 1000 | 100 to 1000 | < 100 | 100 to 1000 | 100 to 1000 | CCC(=O)N1CC[C@@H](N(C)c2nc(OC[C@@]34CCCN3C[C@H](F)C4)nc3c(F)c(-c4ccc(F)c5sc(N)c(C#N)c45)c(Cl)cc23)[C@H]1C [Compound 399] | –
3 | < 100 | 100 to 1000 | 100 to 1000 | < 100 | 100 to 1000 | 100 to 1000 | CCN(c1nc(OC[C@@]23CCCN2C[C@H](F)C3)nc2c(F)c(-c3ccc(F)c4sc(N)c(C#N)c34)c(C(F)(F)F)cc12)[C@@H]1CCN(C(=O)OC)C1 [Compound 396] | –
4 | – | – | – | – | – | – | CC#CC(=O)N1CC[C@@H](N(C)c2nc(OC[C@@]34CCCN3C[C@H](F)C4)nc3c(F)c(-c4ccc(F)c5sc(N)c(C#N)c45)c(C(F)(F)F)cc23)[C@H]1C [Compound 668] | IC50 (GP2d cells (KRAS G12D); GP2d, class symbols): < 100 nM; IC50 [1, 6]: 100 to 1000 nM; IC50 [2, 7]: 100 to 1000 nM; IC50 (SW620 cells (KRAS G12V); [8]): < 100 nM; IC50 [3, 9]: 100 to 1000 nM; IC50 [4, 10]: 100 to 1000 nM
5 | 100 to 1000 | 1000 to 10000 | 1000 to 10000 | 100 to 1000 | > 10000 | 1000 to 10000 | CCC(=O)N1CC[C@@](C)(N(C)c2nc(OC[C@@]34CCCN3C[C@H](F)C4)nc3c(F)c(-c4ccc(F)c5sc(N)c(C#N)c45)c(C(F)(F)F)cc23)[C@H]1C [Compound 343] | –
6 | < 100 | 100 to 1000 | 100 to 1000 | < 100 | 100 to 1000 | 100 to 1000 | CN(c1nc(OC[C@@]23CCCN2C[C@H](F)C3)nc2c(F)c(-c3ccc(F)c4sc(N)c(C#N)c34)c(C(F)(F)F)cc12)[C@@H]1C[C@@H]2COC(=O)N2C1 [Compound 450] | –
7 | – | – | – | – | – | – | N#Cc1c(N)sc2c(F)ccc(-c3c(C(F)(F)F)cc4c(N5CCCC6(CC(O)C6)C5)nc(OC[C@@]56CCCN5C[C@H](F)C6)nc4c3F)c12 (stereo partly drawn) [Compound 231] | IC50 (GP2d cells (KRAS G12D)): 100 to 1000 nM; IC50 [1, 11]: > 10000 nM; IC50 [2, 12]: 1000 to 10000 nM; IC50 (SW620 cells (KRAS G12V); SW620 (KRAS G12V) cells): 100 to 1000 nM; IC50 [3, 13]: 1000 to 10000 nM; IC50 [4, 14]: 1000 to 10000 nM
8 | – | – | – | – | – | – | CCN(c1nc(OC[C@@]23CCCN2C[C@H](F)C3)nc2c(F)c(-c3ccc(F)c4sc(N)c(C#N)c34)c(C(F)(F)F)cc12)[C@@H]1C[C@H](C)N(C(=O)C2COC2)C1 (atropisomer, axis not shown) [Compound 630] | IC50 (GP2d cells (KRAS G12D); GP2d, class symbols): < 100 nM; IC50 [1, 6]: 100 to 1000 nM; IC50 [2, 7]: 100 to 1000 nM; IC50 (SW620 cells (KRAS G12V); [8]): < 100 nM; IC50 [3, 9]: 100 to 1000 nM; IC50 [4, 10]: 100 to 1000 nM
9 | < 100 | – | – | < 100 | – | – | CC(=O)N1CCN(c2nc(OC[C@@]34CCCN3C[C@H](F)C4)nc3c(F)c(-c4ccc(F)c5sc(N)c(C#N)c45)c(C(F)(F)F)cc23)[C@@H](C)C1 [Compound 230] | IC50 [1, 11]: 1000 to 10000 nM; IC50 [2, 12]: 100 to 1000 nM; IC50 [3, 13]: 1000 to 10000 nM; IC50 [4, 14]: 100 to 1000 nM
10 | < 100 | > 10000 | 1000 to 10000 | < 100 | > 10000 | > 10000 | N#Cc1cc2n(n1)CCN(c1nc(OC[C@@]34CCCN3C[C@H](F)C4)nc3c(F)c(-c4ccc(F)c5sc(N)c(C#N)c45)c(C(F)(F)F)cc13)C2 [Compound 393] | –

Row | SMILES | IC50 (GP2d cells (KRAS G12D); GP2d) [nM] | IC50 ([1]; KRAS G12V-GppNHp/RAF1 RBD HTRF) [nM] | IC50 ([2]; KRAS G12D-GppNHp/RAF1 RBD HTRF) [nM] | IC50 (SW620 cells (KRAS G12V); [5]) [nM] | IC50 ([3]; KRAS G12R-GppNHp/RAF1 RBD HTRF) [nM] | IC50 ([4]; KRAS WT-GppNHp/RAF1 RBD HTRF) [nM] | other results
11 | CN1CC(F)(F)C[C@H]1COc1nc(N2CC3CC(C2)O3)c2cc(C(F)(F)F)c(-c3ccc(F)c4sc(N)c(C#N)c34)c(F)c2n1 [Compound 498] | > 1000 | > 10000 | > 10000 | > 1000 | > 10000 | > 10000 | –
